Patent publication US20130197043A1, “USE OF THE FETAL REPROGRAMMING OF A PPAR AGONIST” (SNU R&DB FOUNDATION, priority 2010, published 2013)

Key:
hPPARg = target: T1, hPPARg (Homo sapiens, UniProt P37231); test: Transfection assay in CV-1 cells, hPPARg; type: cell-based; conditions: luciferase reporter
T1 construct: expressed in transfected cells; host or cells: CV-1 cells
T1 sequence (P37231 1-505): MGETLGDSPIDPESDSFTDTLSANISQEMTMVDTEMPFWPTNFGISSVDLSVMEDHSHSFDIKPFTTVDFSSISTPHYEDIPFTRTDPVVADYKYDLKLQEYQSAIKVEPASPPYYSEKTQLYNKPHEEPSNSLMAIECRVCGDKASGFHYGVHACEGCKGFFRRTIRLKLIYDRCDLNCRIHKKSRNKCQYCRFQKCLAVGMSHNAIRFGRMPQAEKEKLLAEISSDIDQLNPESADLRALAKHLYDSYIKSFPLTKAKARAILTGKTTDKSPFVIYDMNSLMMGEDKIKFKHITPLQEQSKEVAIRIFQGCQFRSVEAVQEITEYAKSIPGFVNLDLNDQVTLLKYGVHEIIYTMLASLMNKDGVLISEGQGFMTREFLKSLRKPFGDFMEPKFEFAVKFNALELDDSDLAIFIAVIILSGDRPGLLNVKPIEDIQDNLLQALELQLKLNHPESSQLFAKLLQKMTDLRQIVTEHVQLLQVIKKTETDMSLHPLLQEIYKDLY
Experimental: (§1) This assay was conducted by using CV-1 cells. The cells were cultured on a 96-well plate with a DMEM medium containing 10% FBS, DBS (delipidated), and 1% penicillin/streptomycin in 37° C. of an incubator 5% of carbon dioxide. Test was conducted in four stages of cell inoculation, transfection, treatment with the developed material, and result confirmation. The CV-1 cells were inoculated on the 96-well plate at a cell density at 5,000 cells/well, and after 24 hours, transfection was performed. PPARs plasmid DNA, reporter DNA, and β-galactosidase DNA were mixed with a transfection reagent, and then used to treat the cells. The developed material was dissolved in dimethylsulfoxide (DMSO), and then was used to treat the cells by using media at various concentrations. After 24 hours of culturing in an incubator, the cells were lysed with a lysis buffer and luciferase activity and β-galactosidase activity were measured using a luminometer and a microplate reader. The measured luciferase value was calibrated with the β-galactosidase value, and this value was depicted on a graph and EC50 was determined.

hPPAR δ = target: T2, hPPAR δ (Homo sapiens, UniProt Q03181); test: Transfection assay in CV-1 cells, hPPAR δ; type: cell-based; conditions: luciferase reporter
T2 construct: expressed in transfected cells; host or cells: CV-1 cells
T2 sequence (Q03181 1-441): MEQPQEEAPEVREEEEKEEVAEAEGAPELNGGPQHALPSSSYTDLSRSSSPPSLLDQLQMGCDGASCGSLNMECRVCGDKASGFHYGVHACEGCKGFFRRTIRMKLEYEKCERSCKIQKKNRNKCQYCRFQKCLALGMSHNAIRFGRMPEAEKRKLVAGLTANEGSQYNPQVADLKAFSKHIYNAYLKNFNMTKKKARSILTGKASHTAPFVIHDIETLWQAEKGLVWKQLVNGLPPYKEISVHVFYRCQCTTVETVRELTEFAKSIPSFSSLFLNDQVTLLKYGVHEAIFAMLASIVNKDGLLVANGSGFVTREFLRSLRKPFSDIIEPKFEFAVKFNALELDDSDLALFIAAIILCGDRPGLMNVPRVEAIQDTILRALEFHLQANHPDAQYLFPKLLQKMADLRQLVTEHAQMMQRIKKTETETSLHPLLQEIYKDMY
Experimental: as §1

hPPARa = target: T3, hPPARa (Homo sapiens, UniProt Q07869); test: Transfection assay in CV-1 cells, hPPARa; type: cell-based; conditions: luciferase reporter
T3 construct: expressed in transfected cells; host or cells: CV-1 cells
T3 sequence (Q07869 1-468): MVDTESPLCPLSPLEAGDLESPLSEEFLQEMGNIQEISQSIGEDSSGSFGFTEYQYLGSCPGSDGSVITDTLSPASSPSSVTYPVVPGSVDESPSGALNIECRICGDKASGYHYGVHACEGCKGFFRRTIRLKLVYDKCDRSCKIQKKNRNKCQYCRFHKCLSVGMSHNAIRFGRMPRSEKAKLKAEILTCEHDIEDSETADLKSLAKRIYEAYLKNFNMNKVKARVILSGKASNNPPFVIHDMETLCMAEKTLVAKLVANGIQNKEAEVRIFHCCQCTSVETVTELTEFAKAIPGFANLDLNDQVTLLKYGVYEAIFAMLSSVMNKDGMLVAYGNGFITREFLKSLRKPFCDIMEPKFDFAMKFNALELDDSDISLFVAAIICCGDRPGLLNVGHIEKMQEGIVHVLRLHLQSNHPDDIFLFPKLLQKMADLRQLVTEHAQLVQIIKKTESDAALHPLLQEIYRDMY
Experimental: as §1

[1] = test system: mice subjected to fetal reprogramming; test: Treadmill endurance test of mice subjected to fetal reprogramming; type: in vivo
Experimental: Before the experiment, mice were exercised for 5 minutes at a speed of 7 meters/min for two days so as to be adapted to exercising equipment. On day 3, the main experiment was conducted. As for the method for experiment, the mice were made to run at a speed of 10 meter/min for 60 minutes, and after that, the speed was increased at 1 meter/min once every 15 minutes until the maximum speed reaches 15 meters/min. As for the male mice, the running time was increased by 2.9 fold ([…], P<0.0001, n=6) and the running distance was increased by 3.0 fold (9927±1168 versus 3303±394 m, P<0.0001) in the PPAR δ agonist (CMDD1111)-administered mouse group than the control mouse group.
The Experiment using pregnant C57BL/6 mice was conducted in order to verify an endurance enhancement effect by fetal reprogramming of CMDD1226. […]
The experiment for verifying the fetal reprogramming effect of GW501516 and determining the optimum administration period thereof was conducted. The experiment method was shown in FIG. 1, and the experiment was conducted with respect to three kinds of administration periods (gestation period, lactation period, and both of gestation and lactation periods). As the experiment result, the group administered with PPAR δ agonist only during the gestation period had 2.6-fold and 3.2-fold increases in the running time and the running distance, respectively, and the group administered with PPAR δ agonist only during the lactation period had 2.4-fold and 3.0-fold increases in the running time and the running distance, respectively, as compared with the control group. The group administered with PPAR δ agonist during both the gestation and lactation periods had the most obvious increase in endurance, and had 5.1-fold and 6.6-fold increases as compared with the control group (FIG. 22).
The animal test was conducted in order to verify the muscle endurance enhancement and muscular function improvement effects of the material according to the present invention. […] […] The test using a treadmill was conducted in order to confirm the effect of this muscular fiber change on muscle endurance enhancement and muscular function improvement.

[2] = test system: slow muscle fibers and endurance; conditions: cited from earlier work
HDL in serum = test: High-density lipoprotein cholesterol (HDL) in serum; type: in vivo; conditions: mice fed 10% fat feedstuff over 6 weeks
Excerpt: High-density lipoprotein cholesterol (HDL) has been known to play an important role in treating lipid metabolic disorders such as arteriosclerosis and hyperlipidemia while lowering the cholesterol level of an epidermal cell and mitigating an inflammatory reaction. Serum was separated from the mice fed over a 6-week period of feedstuff containing 10% fat in order to confirm the high-density cholesterol increase effect of Compounds 5 and 9, which were the developed materials of the present invention.

[3] = administered during both gestation and lactation periods
[4] = administered only during the gestation period
[5] = administered only during the lactation period
[6] = C57BL/6, maternal 10 mg/kg/day gestation and lactation, 7-week old

| SMILES | EC50 hPPARg (hPPARg) | EC50 (hPPAR δ) [nM] | EC50 hPPARa (hPPARa) | other results |
| --- | --- | --- | --- | --- |
| Cc1cc(SC(Cc2ccc(-c3ccc(C(F)(F)F)cc3)nc2)c2sc(-c3ccc(C(F)(F)F)cc3)nc2C)ccc1OCC(=O)O (stereo not drawn) [Compound 21] | ia | 10.6 | ia |  |
| Cc1cc(SC(Cc2ccc(-c3cccc(C(F)(F)F)c3)cc2)c2sc(-c3ccc(C(F)(F)F)cc3)nc2C)ccc1OCC(=O)O (stereo not drawn) [Compound 25] | ia | 6.1 | ia |  |
| CCOC(=O)COc1ccc(SC(Cc2ccc(-c3ccc(F)c(Cl)c3)cc2)c2sc(-c3ccc(C(F)(F)F)cc3)nc2C)cc1C (stereo not drawn) [Compound 28] | ia | 4.6 | ia |  |
| Cc1cc(SC(Cc2ccc(-c3cc(F)c(F)c(F)c3)cc2)c2sc(-c3ccc(C(F)(F)F)cc3)nc2C)ccc1OCC(=O)O (stereo not drawn) [Compound 13] | ia | 8.8 | ia |  |
| Cc1cc(SC(Cc2c(F)cccc2Cl)c2sc(-c3ccc(C(F)(F)F)cc3)nc2C)ccc1OCC(=O)O (stereo not drawn) [CMDD1112] |  |  |  | endurance enhancement effect ([1]; 1 mg/kg/day): not exhibited; endurance enhancement effect ([1]; 2 mg/kg/day): not exhibited; running distance enhancement ([1]; 5 mg/kg/day): 1.5 fold; running time enhancement ([1]; 5 mg/kg/day): 1.4 fold |
| Cc1cc(SC(Cc2ccc(-c3ccc(C(F)(F)F)cc3)cc2)c2sc(-c3ccc(C(F)(F)F)cc3)nc2C)ccc1OCC(=O)O (stereo not drawn) [Compound 17] | ia | 6.4 | ia |  |
| Cc1cc(SCc2sc(-c3ccc(C(F)(F)F)cc3)nc2C)ccc1OCC(=O)O [GW501516, reference compound] |  |  |  | improvement in slow muscle fibers and endurance ([2]; administration alone to an adult): did not show improvement; slow muscle fibers and endurance ([2]; simultaneous combination of exercise and administration): generated slow muscle fibers and enhanced endurance; HDL increase in serum (HDL in serum): 29%; increase in the running distance versus control [1, 3]: 6.6 fold; increase in the running time versus control [1, 3]: 5.1 fold; increase in the running distance versus control [1, 4]: 3.2 fold; increase in the running time versus control [1, 4]: 2.6 fold; increase in the running distance versus control [1, 5]: 3.0 fold; increase in the running time versus control [1, 5]: 2.4 fold |
| Cc1cc(SC(Cc2cc(-c3ccc(F)cc3)no2)c2sc(-c3ccc(C(F)(F)F)cc3)nc2C)ccc1OCC(=O)O (stereo not drawn) [Compound 33] | ia | 41.4 | ia |  |
| Cc1cc([Se]C(Cc2ccccc2)c2sc(-c3ccc(C(F)(F)F)cc3)nc2C)ccc1OCC(=O)O (stereo not drawn) [CMDD1226] |  |  |  | increase in the running distance versus control [1, 6]: 2.0 fold; increase in the running time versus control [1, 6]: 1.9 fold |
